The values below come from US20100204203A1, “Chemical Compounds 637: Pyridopyrimidinediones as PDE4 Inhibitors” (priority 2007, published 2010).

SMILES strings stand for the structures.

Chain of recombinant Human Phosphodiesterase B2 (PDE4B2) (Q07343 1-564 isoform Q07343-2): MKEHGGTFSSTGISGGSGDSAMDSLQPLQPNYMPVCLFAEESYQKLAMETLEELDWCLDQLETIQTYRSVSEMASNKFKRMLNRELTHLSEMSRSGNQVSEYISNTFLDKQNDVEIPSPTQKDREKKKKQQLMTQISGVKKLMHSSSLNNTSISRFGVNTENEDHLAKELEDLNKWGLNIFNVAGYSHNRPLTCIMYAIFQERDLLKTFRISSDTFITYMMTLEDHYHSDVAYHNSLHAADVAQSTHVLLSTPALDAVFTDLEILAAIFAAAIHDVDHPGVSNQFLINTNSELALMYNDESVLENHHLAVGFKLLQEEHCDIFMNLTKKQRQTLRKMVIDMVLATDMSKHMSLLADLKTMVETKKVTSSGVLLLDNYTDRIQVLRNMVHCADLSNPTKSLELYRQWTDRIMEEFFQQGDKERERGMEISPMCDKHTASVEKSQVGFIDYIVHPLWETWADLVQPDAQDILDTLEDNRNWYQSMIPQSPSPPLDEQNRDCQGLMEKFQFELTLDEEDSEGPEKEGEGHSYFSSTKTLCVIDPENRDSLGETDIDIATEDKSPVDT

For this assay, the target named is recombinant Human Phosphodiesterase B2 (PDE4B2) (Homo sapiens, UniProt Q07343). In words: Human Phosphodiesterase B2 Radiometric Assay (yttrium silicate SPA beads, [3H]cyclic AMP). In kind it is biochemical. The note with it: recombinant human PDE4B2, radiometric SPA assay, 8 nM [3H]cyclic AMP; read-out: PDE4B2 pIC50 (converted). Here is the method:
Human Phosphodiesterase B2 Radiometric Assay
The assay uses recombinant Human Phosphodiesterase B2 (PDE4B2) produced in house (PrAZL0163), stored at −20° C. This assay is based on the observation that 5′AMP, the product of the reaction catalysed by PDE4, binds preferentially to yttrium silicate SPA beads (Amersham Biosciences, UK) compared to the substrate, cAMP. Compounds at the appropriate concentration were preincubated at 30 C for 30 min with an assay buffer containing 50 mM HEPES (pH 7.5), 8.3 mM MgCl2, 1.7 mM EGTA, 0.01% (w/v) Brij° 35 and 0.1 mg/mL recombinant PDE4B2. The reaction was started by the addition of [3H]cyclic AMP to give a final concentration of 8 nM, and was stopped 20 minutes after the addition of the substrate by the addition of yttrium silicate SPA beads containing 18 mM Zn SO4. Bound [3H]cyclic AMP was measured using a Topcount NXT (Packard Bioscience, UK). pIC50 values (presented in Table 15) were determined using Xlfit3 curve fitting, using model 205.
As for `Cc1cnc(C(=O)N[C@H]2CC[C@@H](n3c(=O)c4cc(F)cnc4n(-c4cccc(-c5ccc(CN6CCC(N7CCCCC7)CC6)cc5)c4)c3=O)CC2)cn1` [Example 297, N-{cis-4-[1-[4′-(1,4′-bipiperidin-1′-ylmethyl)biphenyl-3-yl]-6-fluoro-2,4-dioxo-1,4-dihydropyrido[2,3-d]pyrimidin-3(2H)-yl]cyclohexyl}-5-methylpyrazine-2-carboxamide], the IC50 was 0.0316 nM.

As for `C[N+](C)(C)Cc1ccc(-c2cccc(-n3c(=O)n([C@H]4CC[C@@H](NC(=O)c5cn6cc(F)ccc6n5)CC4)c(=O)c4cc(F)cnc43)c2)cc1` [Example 87, {3-[6-fluoro-3-(cis-4-{[(6-fluoroimidazo[1,2-a]pyridin-2-yl)carbonyl]amino}cyclohexyl)-2,4-dioxo-3,4-dihydropyrido[2,3-a]pyrimidin-1(2H)-yl]biphenyl-4-yl]-N,N,N-trimethylmethanaminium iodide], the IC50 was 0.316 nM.

As to `O=C(N[C@H]1CC[C@@H](n2c(=O)c3cc(F)cnc3n(-c3cccc(-c4ccccc4CN4CCOCC4)c3)c2=O)CC1)c1cn2cc(F)ccc2n1` [Example 19, 6-fluoro-N-{cis-4-[6-fluoro-1-[2′-(morpholin-4-ylmethyl)biphenyl-3-yl]-2,4-dioxo-1,4-dihydropyrido[2,3-d]pyrimidin-3(2H)-yl]cyclohexyl}imidazo[1,2-a]pyridine-2-carboxamide.], the IC50 was 0.00316 nM.

Take `CN(C)C1(C(=O)N[C@H]2CC[C@@H](n3c(=O)c4cc(F)cnc4n(-c4cccc(-c5ccc(CN6CCN(C7CCCC7)CC6)cc5)c4)c3=O)CC2)CC1` [Example 210, N-{cis-4-[1-{4′-[(4-cyclopentylpiperazin-1-yl)methyl]biphenyl-3-yl}-6-fluoro-2,4-dioxo-1,4-dihydropyrido[2,3-d]pyrimidin-3(2H)-yl]cyclohexyl}-1-(dimethylamino)cyclopropane-carboxamide]: the IC50 is 0.02 nM.

As for `O=C(N[C@H]1CC[C@@H](n2c(=O)c3cc(F)cnc3n(-c3cccc(-c4ccc(O)cc4CN4CCOCC4)c3)c2=O)CC1)c1cn2cc(F)ccc2n1` [Example 103, 6-fluoro-N-{cis-4-[6-fluoro-1-[4′-hydroxy-2′-(morpholin-4-ylmethyl)biphenyl-3-yl]-2,4-dioxo-1,4-dihydropyrido[2,3-d]pyrimidin-3(2H)-yl]cyclohexyl}imidazo[1,2-a]pyridine-2-carboxamide], the IC50 is 0.00158 nM.

As to `CSc1cccc(-c2cccc(-n3c(=O)n([C@H]4CC[C@@H](NC(=O)c5cn6cc(F)ccc6n5)CC4)c(=O)c4cc(F)cnc43)c2)c1` [Example 15, 6-fluoro-N-{cis-4-[6-fluoro-1-[3′-(methylthio)biphenyl-3-yl]-2,4-dioxo-1,4-dihydropyrido[2,3-d]pyrimidin-3(2H)-yl]cyclohexyl}imidazo[1,2-a]pyridine-2-carboxamide.], the IC50 is 0.0126 nM.

As for `O=C(N[C@H]1CC[C@@H](n2c(=O)c3cc(F)cnc3n(-c3cccc(-c4ccc(CN5CCCNCC5)cc4)c3)c2=O)CC1)c1cc(=O)c2ccccc2[nH]1` [Example 355, N-{cis-4-[1-[4′-(1,4-diazepan-1-ylmethyl)biphenyl-3-yl]-6-fluoro-2,4-dioxo-1,4-dihydropyrido[2,3-d]pyrimidin-3(2H)-yl]cyclohexyl}-4-oxo-1,4-dihydroquinoline-2-carboxamide], the IC50 was 0.0501 nM.

`O=C(N[C@H]1CC[C@@H](n2c(=O)c3cc(F)cnc3n(-c3cccc(-c4ccc(CN5CCCNCC5)cc4)c3)c2=O)CC1)c1cc2ccccc2cn1` [Example 353, N-{cis-4-[1-[4′-(1,4-diazepan-1-ylmethyl)biphenyl-3-yl]-6-fluoro-2,4-dioxo-1,4-dihydropyrido[2,3-d]pyrimidin-3(2H)-yl]cyclohexyl} isoquinoline-3-carboxamide]: the IC50 is 0.0316 nM.

As to `CC(=O)N[C@H]1CC[C@@H](n2c(=O)c3cc(F)cnc3n(-c3cccc(-c4ccccc4)c3)c2=O)CC1` [Example 65, N-[cis-4-(1-biphenyl-3-yl-6-fluoro-2,4-dioxo-1,4-dihydropyrido[2,3-d]pyrimidin-3(2H)-yl)cyclohexyl]acetamide], the IC50 is 0.398 nM.

For `Cc1nc2ccccn2c1CN[C@H]1CC[C@@H](n2c(=O)c3cc(F)cnc3n(-c3cccc(-c4ccc(O)cc4CN4CCOCC4)c3)c2=O)CC1` [Example 370, 6-fluoro-1-[4′-hydroxy-2′-(morpholin-4-ylmethyl)biphenyl-3-yl]-3-(cis-4-{[(2-methylimidazo[1,2-a]pyridin-3-yl)methyl]amino}cyclohexyl)pyrido[2,3-d]pyrimidine-2,4(1H,3H)-dione], the IC50 is 0.501 nM.

For `Cc1c(CN[C@H]2CC[C@@H](n3c(=O)c4cc(F)cnc4n(-c4cccc(-c5ccc(CN6CCN(C(C)C)CC6)cc5)c4)c3=O)CC2)ncn1Cc1ccccc1` [Example 263, 3-(cis-4-{[(1-benzyl-5-methyl-1H-imidazol-4-yl)methyl]amino}cyclohexyl)-6-fluoro-1-{4′-[(4-isopropylpiperazin-1-yl)methyl]biphenyl-3-yl}pyrido[2,3-d] pyrimidine-2,4(1H,3H)-dione], the IC50 was 1.58 nM.

With `Cc1cccc(C(=O)N[C@H]2CC[C@@H](n3c(=O)c4cc(F)cnc4n(-c4cccc(-c5ccc(CN6C[C@@H](C)N[C@@H](C)C6)cc5)c4)c3=O)CC2)n1` [Example 290, N-{cis-4-[1-(4′-{[(3R,5S)-3,5-dimethylpiperazin-1-yl]methyl}biphenyl-3-yl)-6-fluoro-2,4-dioxo-1,4-dihydropyrido[2,3-d]pyrimidin-3(2H)-yl]cyclohexyl}-6-methylpyridine-2-carboxamide], the IC50 is 0.01 nM.

In the case of `CN(C)Cc1ccc(-c2cccc(-n3c(=O)n([C@H]4CC[C@@H](NCc5cn6ccccc6n5)CC4)c(=O)c4cc(F)cnc43)c2)cc1` [Example 343, 1-{4′-[(dimethylamino)methyl]biphenyl-3-yl}-6-fluoro-3-{cis-4-[(imidazo[1,2-a]pyridin-2-ylmethyl)amino]cyclohexyl}pyrido[2,3-d]pyrimidine-2,4(1H,3H)-dione], the IC50 is 2 nM.

For the compound `CN1CCCN(Cc2ccc(-c3cccc(-n4c(=O)n([C@H]5CC[C@@H](NC(=O)CN6CCCCC6)CC5)c(=O)c5cc(F)cnc54)c3)cc2)CC1` [Example 292, N-{cis-4-[6-fluoro-1-{4′-[(4-methyl-1,4-diazepan-1-yl)methyl]biphenyl-3-yl}-2,4-dioxo-1,4-dihydropyrido[2,3-d]pyrimidin-3(2H)-yl]cyclohexyl}-2-piperidin-1-ylacetamide], the IC50 is 0.0316 nM.

With `CC(C)c1ccc(CN[C@H]2CC[C@@H](n3c(=O)c4cc(F)cnc4n(-c4cccc(-c5ccc(O)cc5CN5CCOCC5)c4)c3=O)CC2)cc1` [Example 283, 6-fluoro-1-[4′-hydroxy-2′-(morpholin-4-ylmethyl)biphenyl-3-yl]-3-{cis-4-[(4-isopropylbenzyl)amino]cyclohexyl} pyrido[2,3-d]pyrimidine-2,4(1H,3H)-dione], the IC50 was 1.26 nM.

Regarding `CN(Cc1cc(O)ccc1-c1cccc(-n2c(=O)n([C@H]3CC[C@@H](NCc4cn5cc(F)ccc5n4)CC3)c(=O)c3cc(F)cnc32)c1)C1(CO)CC1` [Example 321, 6-fluoro-3-(cis-4-{[(6-fluoroimidazo[1,2-a]pyridin-2-yl)methyl]amino}cyclohexyl)-1-(4′-hydroxy-2′-{[[1-(hydroxymethyl)cyclopropyl](methyl)amino]methyl}biphenyl-3-yl)pyrido[2,3-c]pyrimidine-2,4(1H,3H)-dione], the IC50 was 0.1 nM.

For `Cc1cccc(CN[C@H]2CC[C@@H](n3c(=O)c4cc(F)cnc4n(-c4cccc(-c5ccc(O)cc5CN5CCOCC5)c4)c3=O)CC2)n1` [Example 284, 6-fluoro-1-{4′-hydroxy-2′-(morpholin-4-ylmethyl)biphenyl-3-yl]-3-(cis-4-{[(6-methylpyridin-2-yl)methyl]amino}cyclohexyl)pyrido [2,3-d]pyrimidine-2,4(1H,3H)-dione], the IC50 was 0.0794 nM.

As for `O=C(N[C@H]1CC[C@@H](n2c(=O)c3cc(F)cnc3n(-c3cccc(-c4ccc(CN5CCNCC5)cc4)c3)c2=O)CC1)c1cn2cc(F)ccc2n1` [Example 54, 6-fluoro-N-{cis-4-[6-fluoro-2,4-dioxo-1-[4′-(piperazin-1-ylmethyl)biphenyl-3-yl]-1,4-dihydropyrido[2,3-d]pyrimidin-3(2H)-yl]cyclohexyl}imidazo[1,2-a]pyridine-2-carboxamide], the IC50 is 0.0158 nM.

`C[C@H](CO)N(C)Cc1cc(O)ccc1-c1cccc(-n2c(=O)n([C@H]3CC[C@@H](NCc4cn5cc(F)ccc5n4)CC3)c(=O)c3cc(F)cnc32)c1` [Example 319, 6-fluoro-3-(cis-4-{[(6-fluoroimidazo[1,2-a]pyridin-2-yl)methyl]amino}cyclohexyl)-1-(4′-hydroxy-2′-{[[(1R)-2-hydroxy-1-methylethyl](methyl)amino]methyl}biphenyl-3-yl)pyrido[2,3-d]pyrimidine-2,4(1H,3H)-dione]: the IC50 was 0.631 nM.

Consider `O=C(N[C@H]1CC[C@@H](n2c(=O)c3cc(F)cnc3n(-c3cccc(-c4ccc(F)cc4OCCN4CCNCC4)c3)c2=O)CC1)c1cn2cc(F)ccc2n1` [Example 85, 6-fluoro-N-{cis-4-[6-fluoro-1-[4′-fluoro-2′-(2-piperazin-1-ylethoxy)biphenyl-3-yl]-2,4-dioxo-1,4-dihydropyrido[2,3-d]pyrimidin-3(2H)-yl]cyclohexyl}imidazo[1,2-a]pyridine-2-carboxamide], for which the IC50 was 0.316 nM.
